Experiment [1] concerns the target Carboxylic ester hydrolase (Equus caballus, UniProt Q9N1N9). Nature of the experiment: Ellman's Method. Background: In Ellman's method for cholinesterases, released thiocholine reacts with DTNB.
For a further experiment, the target named is Acetylcholinesterase (Electrophorus electricus, UniProt O42275). The experiment can be described thus: Ellman's Method.
Acetylcholinesterase, sequence (O42275 whole entry): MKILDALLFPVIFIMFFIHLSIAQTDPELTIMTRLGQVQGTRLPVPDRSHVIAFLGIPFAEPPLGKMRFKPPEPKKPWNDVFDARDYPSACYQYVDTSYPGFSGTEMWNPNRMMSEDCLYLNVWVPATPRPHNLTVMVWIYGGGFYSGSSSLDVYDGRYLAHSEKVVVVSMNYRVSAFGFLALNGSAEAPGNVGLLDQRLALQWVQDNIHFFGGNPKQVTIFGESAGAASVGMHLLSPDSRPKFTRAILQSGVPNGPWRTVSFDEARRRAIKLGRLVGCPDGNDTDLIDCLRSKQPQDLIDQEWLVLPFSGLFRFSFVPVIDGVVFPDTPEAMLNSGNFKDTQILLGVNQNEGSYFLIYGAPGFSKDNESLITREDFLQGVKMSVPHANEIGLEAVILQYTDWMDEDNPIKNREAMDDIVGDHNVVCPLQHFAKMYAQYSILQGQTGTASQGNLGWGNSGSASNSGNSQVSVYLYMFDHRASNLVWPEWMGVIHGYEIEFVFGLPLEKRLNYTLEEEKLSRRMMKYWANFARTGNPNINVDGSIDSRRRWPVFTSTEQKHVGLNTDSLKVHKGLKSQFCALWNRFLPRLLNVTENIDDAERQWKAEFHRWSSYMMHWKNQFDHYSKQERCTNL

Carboxylic ester hydrolase, sequence (Q9N1N9 whole entry): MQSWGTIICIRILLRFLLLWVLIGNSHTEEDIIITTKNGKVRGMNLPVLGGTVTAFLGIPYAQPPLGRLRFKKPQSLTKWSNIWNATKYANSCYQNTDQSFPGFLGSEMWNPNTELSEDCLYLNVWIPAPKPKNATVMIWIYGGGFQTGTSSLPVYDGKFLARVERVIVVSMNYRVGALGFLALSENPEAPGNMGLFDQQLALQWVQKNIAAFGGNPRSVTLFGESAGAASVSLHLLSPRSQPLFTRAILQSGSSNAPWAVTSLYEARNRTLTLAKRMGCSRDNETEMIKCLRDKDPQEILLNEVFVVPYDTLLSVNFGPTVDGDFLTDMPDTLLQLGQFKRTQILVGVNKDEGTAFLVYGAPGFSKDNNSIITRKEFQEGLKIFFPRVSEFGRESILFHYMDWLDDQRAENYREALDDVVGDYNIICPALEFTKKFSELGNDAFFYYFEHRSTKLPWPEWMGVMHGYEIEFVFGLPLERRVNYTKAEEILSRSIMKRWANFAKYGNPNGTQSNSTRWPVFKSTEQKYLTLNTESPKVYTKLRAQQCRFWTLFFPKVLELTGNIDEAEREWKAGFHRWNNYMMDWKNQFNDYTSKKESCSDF

The IC50 is the concentration at which inhibition is half-maximal. As to `CCOP(=O)(OCC)Oc1cc(Cl)ccc1C(=O)Nc1ccc(C(F)(F)F)cc1` [5-chloro-2-{[4-(trifluoromethyl)phenyl]carbamoyl}phenyl diethyl phosphate (27)], the IC50 in experiment [1] stood at 9.84 µM; against Acetylcholinesterase it was 86.3 µM.
For `CCOP(=O)(OCC)Oc1cc(Cl)ccc1C(=O)Nc1cccc(Br)c1` [2-[(3-bromophenyl)carbamoyl]-5-chlorophenyl diethyl phosphate (20)], in that order: 1.77 µM and 35.4 µM.
`CCOP(=O)(OCC)Oc1ccc(Br)cc1C(=O)Nc1ccc(Cl)c(Cl)c1` [4‐bromo‐2‐[(3,4‐dichlorophenyl)carbamoyl]phenyl  diethyl phosphate (4)]: the values for the IC50 (in experiment [1]; at Acetylcholinesterase) were 49.6 µM and 55.2 µM, respectively.
On the same counts, the results for `CCOP(=O)(OCC)Oc1cc(Cl)ccc1C(=O)Nc1ccc(Cl)cc1` [5-chloro-2-[(4-chlorophenyl)carbamoyl]phenyl diethyl phosphate (24)] are 5.01 µM and 60.9 µM.
For `CCOP(=O)(OCC)Oc1ccc(Br)cc1C(=O)Nc1ccc(Br)cc1` [4‐bromo‐2‐[(4‐bromophenyl)carbamoyl]phenyl diethyl  phosphate (8)], in that order: 13 µM and 50.8 µM.
For `CCOP(=O)(OCC)Oc1ccc(Cl)cc1C(=O)Nc1ccc(Br)cc1` [2‐[(4‐bromophenyl)carbamoyl]‐4‐chlorophenyl  diethyl phosphate (14)], in that order: 40.2 µM and 59.2 µM.
With `CCOP(=O)(OCC)Oc1ccc(Cl)cc1C(=O)Nc1ccc(F)cc1` [4‐chloro‐2‐[(4‐fluorophenyl)carbamoyl]phenyl  diethyl phosphate (13)], the IC50 in experiment [1] was 20.5 µM; on Acetylcholinesterase, 48.5 µM.
Regarding `CCOP(=O)(OCC)Oc1ccc(Br)cc1C(=O)Nc1ccc(C(F)(F)F)cc1` [4‐bromo‐2‐{[4‐ (trifluoromethyl)phenyl]carbamoyl}phenyl diethyl  phosphate (6)], the IC50 was 10.3 µM in experiment [1] and 56.7 µM at Acetylcholinesterase.
`CCOP(=O)(OCC)Oc1ccc(Cl)cc1C(=O)Nc1cccc(Cl)c1` [4‐chloro‐2‐[(3‐chlorophenyl)carbamoyl]phenyl  diethyl phosphate (10)]: the values for the IC50 (in experiment [1]; at Acetylcholinesterase) were 28.1 µM and 64.3 µM, respectively.
As to `CCOP(=O)(OCC)Oc1ccc(Cl)cc1C(=O)Nc1cccc(F)c1` [4‐chloro‐2‐[(3‐fluorophenyl)carbamoyl]phenyl  diethyl phosphate (12)], the IC50 in experiment [1] came out at 31.6 µM; against Acetylcholinesterase, 61.1 µM.
For `CCOP(=O)(OCC)Oc1cc(Cl)ccc1C(=O)Nc1cccc(C(F)(F)F)c1` [5-chloro-2-{[3-(trifluoromethyl)phenyl]carbamoyl}phenyl diethyl phosphate (26)], in that order: 3.53 µM and 71.9 µM.
On the same counts, the results for `CCOP(=O)(OCC)Oc1cc(Cl)ccc1C(=O)Nc1ccc(F)cc1` [5-chloro-2-[(4-fluorophenyl)carbamoyl]phenyl diethyl phosphate (22)] are 4.43 µM and 80.8 µM.
For `CCOP(=O)(OCC)Oc1cc(Cl)ccc1C(=O)Nc1cccc(F)c1` [5-chloro-2-[(3-fluorophenyl)carbamoyl]phenyl diethyl phosphate (21)], in that order: 11.5 µM and 60.2 µM.
For the compound `CCOP(=O)(OCC)Oc1ccc(Br)cc1C(=O)Nc1ccc(F)cc1` [4‐bromo‐2‐[(4‐fluorophenyl)carbamoyl]phenyl  diethyl phosphate (9)], the IC50 in experiment [1] was 22.7 µM; against Acetylcholinesterase, 53.7 µM.
Take `CCOP(=O)(OCC)Oc1ccc(Cl)cc1C(=O)Nc1ccc(C(F)(F)F)cc1` [4‐chloro‐2‐{[4‐ (trifluoromethyl)phenyl]carbamoyl}phenyl diethyl  phosphate (18)]: the IC50 in experiment [1] was determined as 20.9 µM; on Acetylcholinesterase, 41.6 µM.
On the same counts, the results for `CCOP(=O)(OCC)Oc1ccc(Br)cc1C(=O)Nc1cccc(Br)c1` [4‐bromo‐2‐[(3‐bromophenyl)carbamoyl]phenyl diethyl  phosphate (7)] are 18 µM and 70.3 µM.
For `CCOP(=O)(OCC)Oc1ccc(Br)cc1C(=O)Nc1cccc(F)c1` [4‐bromo‐2‐[(3‐fluorophenyl)carbamoyl]phenyl  diethyl phosphate (1)], in that order: 68.3 µM and 69.8 µM.
On the same counts, the results for `CCOP(=O)(OCC)Oc1ccc(Br)cc1C(=O)Nc1cccc(Cl)c1` [4‐bromo‐2‐[(3‐chlorophenyl)carbamoyl]phenyl  diethyl phosphate (2)] are 24.4 µM and 79.9 µM.
Take `CCOP(=O)(OCC)Oc1cc(Cl)ccc1C(=O)Nc1ccc(Cl)c(Cl)c1` [5-chloro-2-[(3,4-dichlorophenyl)carbamoyl]phenyl diethyl phosphate (25)]: the results for the half-inhibitory concentration (IC50) (in experiment [1]; against Acetylcholinesterase) were 0.903 µM and 45.5 µM, respectively.
On to `CCOP(=O)(OCC)Oc1ccc(Cl)cc1C(=O)Nc1ccc(Cl)c(Cl)c1` [4‐chloro‐2‐[(3,4‐dichlorophenyl)carbamoyl]phenyl  diethyl phosphate (15)], for which the IC50 in experiment [1] worked out at 40.3 µM; against Acetylcholinesterase, 80.9 µM.
In the case of `CCOP(=O)(OCC)Oc1ccc(Cl)cc1C(=O)Nc1ccc(Cl)cc1` [4‐chloro‐2‐[(4‐chlorophenyl)carbamoyl]phenyl  diethyl phosphate (11)], the IC50 in experiment [1] came out at 42.1 µM; on Acetylcholinesterase it was 60.9 µM.
Take `CCOP(=O)(OCC)Oc1ccc(Br)cc1C(=O)Nc1cccc(C(F)(F)F)c1` [4‐bromo‐2‐{[3‐ (trifluoromethyl)phenyl]carbamoyl}phenyl diethyl  phosphate (5)]: the IC50 came out at 14.3 µM in experiment [1] and 46.1 µM against Acetylcholinesterase.
On the same counts, the results for `CCOP(=O)(OCC)Oc1ccc(Cl)cc1C(=O)Nc1cccc(C(F)(F)F)c1` [4‐chloro‐2‐{[3‐ (trifluoromethyl)phenyl]carbamoyl}phenyl diethyl  phosphate (17)] are 24.8 µM and 51.5 µM.
On the same counts, the results for `CCOP(=O)(OCC)Oc1cc(Cl)ccc1C(=O)Nc1cccc(Cl)c1` [5-chloro-2-[(3-chlorophenyl)carbamoyl]phenyl diethyl phosphate (19)] are 3.68 µM and 41.1 µM.
For `CCOP(=O)(OCC)Oc1cc(Cl)ccc1C(=O)Nc1ccc(Br)cc1` [2-[(4-bromophenyl)carbamoyl]-5-chlorophenyl diethyl phosphate (23)], in that order: 8.76 µM and 55.1 µM.
As to `CCOP(=O)(OCC)Oc1ccc(Cl)cc1C(=O)Nc1cccc(Br)c1` [2‐[(3‐bromophenyl)carbamoyl]‐4‐chlorophenyl  diethyl phosphate (16)], the values for the IC50 (in experiment [1]; on Acetylcholinesterase) were 16.9 µM and 63.3 µM, respectively.
For `CCOP(=O)(OCC)Oc1ccc(Br)cc1C(=O)Nc1ccc(Cl)cc1` [4‐bromo‐2‐[(4‐chlorophenyl)carbamoyl]phenyl  diethyl phosphate (3)], in that order: 19.9 µM and 45.5 µM.

These data come from BindingDB's records for doi:10.1016/j.bioorg.2014.11.005 (Charles University In Prague, 2015).
